Among the data in PubChem BioAssay (NCI) are GI50 and TGI values, retold here.

Among the test systems are MOLT-4 leukemia; KM12 colon; SNB-19 CNS; NCI-H226 lung; HOP-92 NSCLC; TK-10 renal; SK-MEL-2 melanoma; OVCAR-5 ovarian; OVCAR-4 ovarian; CCRF-CEM leukemia.
Test in all cases: growth of human tumour cells (NCI), 48 h

Several values for one entry are separate records, joined by “and”; a condition that tells them apart may be missing. Identical values can stand only once.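 96-well plates; 48 h exposure; 5 concentrations. Endpoints by linear interpolation between flanking doses. Not reached: highest tested concentration assigned. GI50 is the concentration that inhibits growth by half. The concentration for full growth arrest is given as TGI.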

In the case of `COc1cc2nccc(Oc3ccc(NC(=O)c4cn(C(C)C)c(=O)n(-c5ccc(F)cc5)c4=O)cc3F)c2cc1OC`, the GI50 is greater than 100 µM with MOLT-4 leukemia; 0.0453 µM in the assay on KM12 colon; greater than 100 µM in the assay on SNB-19 CNS; 6.76 µM in the assay with NCI-H226 lung; 0.347 µM in the assay on HOP-92 NSCLC; greater than 70.7 µM in the assay on TK-10 renal. The GI50 in the assay with SK-MEL-2 melanoma was greater than 68.1 µM; in the assay on OVCAR-5 ovarian, 5.6 µM; in the assay on OVCAR-4 ovarian it was greater than 20.8 µM; in the assay on CCRF-CEM leukemia, greater than 100 µM. Moreover, the TGI with MOLT-4 leukemia is greater than 100 µM; in the assay with KM12 colon, greater than 100 µM; in the assay with SNB-19 CNS, greater than 100 µM; with NCI-H226 lung it was greater than 21.8 µM; in the assay on HOP-92 NSCLC it was greater than 100 µM; in the assay with TK-10 renal, greater than 100 µM. Besides, the TGI with SK-MEL-2 melanoma, in the assay with OVCAR-5 ovarian, with OVCAR-4 ovarian and in the assay with CCRF-CEM leukemia was greater than 100 µM each time.
For `C/C=C(\C)C(=O)OC1/C=C(\C)CC/C=C(\C)CC2OC(=O)C(C)(OC(C)=O)C12` (stereo not drawn), the TGI with MOLT-4 leukemia, with KM12 colon, with SNB-19 CNS, in the assay with NCI-H226 lung, in the assay with HOP-92 NSCLC and with TK-10 renal was greater than 100 µM each time. The TGI with SK-MEL-2 melanoma, in the assay with OVCAR-5 ovarian, with OVCAR-4 ovarian and in the assay on CCRF-CEM leukemia was greater than 100 µM each time.
For `CN1CCN(CCCOc2cc(O)c3c(=O)cc(-c4ccccc4)oc3c2)CC1`, the GI50 was 17.3 µM in the assay with MOLT-4 leukemia; 22 µM in the assay with KM12 colon; 24.9 µM in the assay on SNB-19 CNS; 19.5 µM with NCI-H226 lung; 14.5 µM with HOP-92 NSCLC; 20.5 µM in the assay with TK-10 renal. Besides, the GI50 in the assay on SK-MEL-2 melanoma is 35.3 µM; in the assay with OVCAR-5 ovarian it was 20.3 µM; in the assay with OVCAR-4 ovarian it was 16.3 µM; in the assay on CCRF-CEM leukemia, 23.6 µM. Besides, the TGI in the assay with MOLT-4 leukemia stood at 38.8 µM; in the assay with KM12 colon, 54.7 µM; in the assay on SNB-19 CNS, 63.5 µM; in the assay with NCI-H226 lung it was 37 µM; with HOP-92 NSCLC, 42.9 µM; in the assay with TK-10 renal it was 48.3 µM. In addition, the TGI with SK-MEL-2 melanoma is greater than 100 µM; in the assay on OVCAR-5 ovarian, 43.6 µM; with OVCAR-4 ovarian, 41 µM; in the assay with CCRF-CEM leukemia it was 56.7 µM.
In the case of `CCC1=C(CC2NCCc3ccccc32)CC2c3cc(OC)c(OC)cc3CCN2C1` (stereo not drawn), the GI50 in the assay on MOLT-4 leukemia is 3.39 µM; in the assay with KM12 colon, 3.32 µM; in the assay with SNB-19 CNS, 3.6 µM; in the assay on NCI-H226 lung, 4.7 µM; in the assay on HOP-92 NSCLC, 1.23 µM; in the assay on TK-10 renal it was 6.08 µM. In addition, the GI50 was 4.64 µM in the assay on SK-MEL-2 melanoma, 6.15 µM in the assay with OVCAR-5 ovarian, 3.87 µM with OVCAR-4 ovarian and 3.81 µM in the assay on CCRF-CEM leukemia. Moreover, the TGI is 13.8 µM and 2.2 µM with MOLT-4 leukemia; 12.2 µM and 4.81 µM in the assay with KM12 colon; 13.7 µM and 11.9 µM in the assay on SNB-19 CNS; 37.4 µM and 4.74 µM in the assay on NCI-H226 lung; 9.48 µM and 16.6 µM in the assay with HOP-92 NSCLC; 30.4 µM and 3.83 µM in the assay with TK-10 renal. In addition, the TGI in the assay with SK-MEL-2 melanoma was 16.6 µM and 2.64 µM; in the assay with CCRF-CEM leukemia it was 18.6 µM and 4.53 µM.
Take `C=C1C(=O)O[C@H]2C[C@@H]1C(=O)CC(C)CCCC(C)=CCC[C@@]2(C)O` (stereo partly drawn): the TGI in the assay with MOLT-4 leukemia, in the assay with KM12 colon, in the assay on SNB-19 CNS, in the assay on NCI-H226 lung, with HOP-92 NSCLC and with TK-10 renal was greater than 25 µM in each case. For the same compound, the TGI in the assay on SK-MEL-2 melanoma, in the assay on OVCAR-5 ovarian, in the assay on OVCAR-4 ovarian and in the assay on CCRF-CEM leukemia was greater than 25 µM each time.
`CCn1c2ccccc2c2cc(C(=O)c3ccc(C)c4ccccc34)ccc21`: the GI50 is 0.0578 µM with MOLT-4 leukemia; 0.362 µM with KM12 colon; 0.438 µM with SNB-19 CNS; 1.91 µM with NCI-H226 lung; 0.28 µM in the assay with HOP-92 NSCLC; 0.658 µM in the assay on TK-10 renal. Besides, the GI50 was 0.324 µM in the assay with SK-MEL-2 melanoma, 0.62 µM in the assay on OVCAR-5 ovarian, 3.32 µM in the assay with OVCAR-4 ovarian and 0.359 µM with CCRF-CEM leukemia. In addition, the TGI is greater than 100 µM in the assay with MOLT-4 leukemia; 14.9 µM with KM12 colon; greater than 100 µM with SNB-19 CNS; greater than 100 µM with NCI-H226 lung; 6.87 µM in the assay on HOP-92 NSCLC; greater than 100 µM in the assay on TK-10 renal. The TGI in the assay with SK-MEL-2 melanoma was 1.81 µM; in the assay on OVCAR-5 ovarian, greater than 100 µM; with OVCAR-4 ovarian, greater than 100 µM; in the assay with CCRF-CEM leukemia it was greater than 100 µM.
For the compound `C=C(C)[C@@H]1CC[C@]2(C(=O)NS(=O)(=O)c3ccccc3)CC[C@]3(C)[C@H](CC[C@@H]4[C@@]5(C)CC[C@H](OC(=O)NS(=O)(=O)c6ccccc6)C(C)(C)[C@@H]5CC[C@]43C)[C@@H]12`, the GI50 is 2.58 µM in the assay on MOLT-4 leukemia; 1.34 µM in the assay with KM12 colon; 3.42 µM in the assay on SNB-19 CNS; 2.38 µM with NCI-H226 lung; 1.9 µM in the assay on HOP-92 NSCLC; 2.43 µM in the assay with TK-10 renal. In addition, the GI50 was 2.01 µM in the assay on SK-MEL-2 melanoma, 3.02 µM in the assay with OVCAR-5 ovarian, 3.04 µM with OVCAR-4 ovarian and 2.29 µM in the assay with CCRF-CEM leukemia. For the same compound, the TGI was 24 µM in the assay with MOLT-4 leukemia; 2.96 µM in the assay on KM12 colon; 18.2 µM in the assay with SNB-19 CNS; 13.8 µM in the assay on NCI-H226 lung; 4.72 µM with HOP-92 NSCLC; 10.3 µM in the assay with TK-10 renal. In addition, the TGI in the assay with SK-MEL-2 melanoma amounted to 4.97 µM; in the assay with OVCAR-5 ovarian, 11.8 µM; in the assay with OVCAR-4 ovarian, 51.4 µM; with CCRF-CEM leukemia, 19.5 µM.
